Columns and labels:
Assay type in all cases: cell-based
[1] = test system: TsA-201 cells; test: Cytotoxicity test (trypan blue cell counting); conditions: Homo sapiens, tsA201, 24 h, read-out: EC50, concentration of the inhibitor required to induce 50% of cell death
Procedure: Untransfected TsA-201 cells were seeded in a 96-wells plate at a concentration of 10,000 cells per well with DMEM and incubated at 37°C and 5% CO2 in a humidified atmosphere incubator overnight. […] After incubation, the cells were washed and incubated in 0.01% trypsin-EDTA until the cellular layer was completely detached. Cells were centrifuged down, and the pellet resuspended in 1 ml PBS. Cells were then diluted in 1 part of 0.4% trypan blue and 1-part cell suspension. This mixture was incubated for 3 min at room temperature. Finally, the unstained (viable) and stained (nonviable) cells were counted in the haemocytometer (BRAND® counting chamber BLAUBRAND®, Wertheim, Germany).

[2] = target: T1, human TRPM4 (Homo sapiens, UniProt Q8TD43); test: Inside-out patch clamp on TsA-201 cells stably expressing human TRPM4; conditions: 300 μM calcium, +100 mV
T1 construct: expressed in transfected cells
Procedure: (§1) They were kept at 37°C with 5% CO2 in a humidified atmosphere incubator.
Electrophysiological recordings were performed in the inside-out patch-clamp configuration with patch pipettes (1 and 2 μm tip opening) pulled from 1.5 mm borosilicate glass capillaries (Zeitz-Instruments GmbH, München, Germany) using micropipette puller P 97 (Sutter Instruments, Novato, CA, United States). The tips were polished to have a pipette resistance of 2–4 MΩ in the bath solution. The pipette solution contained (in mM) 150 NaCl, 10 HEPES, and 2 CaCl2 (pH 7.4 with NaOH). The bath solution contained (in mM) 150 NaCl, 10 HEPES, 2 HEDTA (pH 7.4 with NaOH), and no Ca^2+. […] The I-V relationships (IV curves) have been determined using an I-V protocol from −100 mV to +100 mV for 500 ms with a difference of 20 mV between each sweep (cf. Figure 6). […]
Electrophysiology data were analysed using IGOR PRO 6 (WaveMetrics, Lake Oswego, United States), Normalized current percentage inhibition was calculated as follows ([activated current at 300 μM calcium]—[activated current at 300 μM calcium with compound]) * 100/[activated current at 300 µM calcium]. […] Data are presented as mean ± SEM except for Figures 3 and 7, where the data have been normalised to 100 for the current recorded in the presence of 300 µM calcium only. […]

[3] = target: T2, mouse TRPM4 (Mus musculus, UniProt Q7TN37); test: Inside-out patch clamp on TsA-201 cells stably expressing mouse TRPM4; conditions: for effect of CBA- and NBA-derived compounds on mouse TRPM4 current: 10 μM, applied intracellularly, n ≥ 6
T2 construct: expressed in transfected cells
T2 sequence (Q7TN37 whole entry): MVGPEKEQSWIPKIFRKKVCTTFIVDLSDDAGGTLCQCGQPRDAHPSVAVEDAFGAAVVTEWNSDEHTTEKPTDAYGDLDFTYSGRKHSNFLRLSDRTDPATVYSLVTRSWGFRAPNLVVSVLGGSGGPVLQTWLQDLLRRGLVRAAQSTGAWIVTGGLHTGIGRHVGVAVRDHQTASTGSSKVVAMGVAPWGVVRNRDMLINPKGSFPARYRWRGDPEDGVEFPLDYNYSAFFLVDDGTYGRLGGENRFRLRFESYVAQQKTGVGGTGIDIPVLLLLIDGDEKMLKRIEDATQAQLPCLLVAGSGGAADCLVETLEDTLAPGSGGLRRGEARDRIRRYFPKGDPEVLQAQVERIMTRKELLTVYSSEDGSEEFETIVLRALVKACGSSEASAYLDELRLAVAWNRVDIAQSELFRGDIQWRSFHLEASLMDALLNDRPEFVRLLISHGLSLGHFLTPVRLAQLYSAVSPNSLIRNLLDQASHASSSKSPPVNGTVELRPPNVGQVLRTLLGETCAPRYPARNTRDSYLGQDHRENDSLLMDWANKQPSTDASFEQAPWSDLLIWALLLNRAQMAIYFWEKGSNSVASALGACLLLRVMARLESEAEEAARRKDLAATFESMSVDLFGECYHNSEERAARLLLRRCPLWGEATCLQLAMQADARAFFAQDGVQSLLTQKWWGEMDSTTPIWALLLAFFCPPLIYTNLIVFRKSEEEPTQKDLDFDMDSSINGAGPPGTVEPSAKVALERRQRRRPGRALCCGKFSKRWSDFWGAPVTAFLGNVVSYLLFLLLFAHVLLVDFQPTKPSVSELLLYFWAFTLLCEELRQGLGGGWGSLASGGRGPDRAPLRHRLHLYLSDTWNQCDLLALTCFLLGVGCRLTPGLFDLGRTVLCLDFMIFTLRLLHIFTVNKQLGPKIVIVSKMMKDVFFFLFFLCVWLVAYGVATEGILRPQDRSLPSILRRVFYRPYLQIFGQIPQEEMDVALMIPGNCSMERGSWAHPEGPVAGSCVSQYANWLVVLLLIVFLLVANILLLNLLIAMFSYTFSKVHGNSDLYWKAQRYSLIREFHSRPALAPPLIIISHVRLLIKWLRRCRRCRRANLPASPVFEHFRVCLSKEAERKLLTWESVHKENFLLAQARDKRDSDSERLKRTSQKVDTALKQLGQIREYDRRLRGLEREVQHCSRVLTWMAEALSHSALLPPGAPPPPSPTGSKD
Procedure: as §1
Electrophysiological recordings were performed in the inside-out patch-clamp configuration with patch pipettes (1 and 2 μm tip opening) pulled from 1.5 mm borosilicate glass capillaries (Zeitz-Instruments GmbH, München, Germany) using micropipette puller P 97 (Sutter Instruments, Novato, CA, United States). The tips were polished to have a pipette resistance of 2–4 MΩ in the bath solution. The pipette solution contained (in mM) 150 NaCl, 10 HEPES, and 2 CaCl2 (pH 7.4 with NaOH). The bath solution contained (in mM) 150 NaCl, 10 HEPES, 2 HEDTA (pH 7.4 with NaOH), and no Ca^2+. […] Bath solution with 0 and 300 μM Ca^2+ concentrations were applied to cells by a modified rapid solution exchanger (Perfusion Fast-Step SF-77B; Warner Instruments Corp. CT, United States). […] Data were low-pass filtered at 5 kHz and sampled at 10 kHz. Experiments were performed at room temperature (20–25°C). The holding potential was 0 mV. For measuring steady-state currents, the stimulation protocol consisted of two sweeps with a total duration of 1,000 ms, the first sweep at −100 mV for 500 ms and the second at +100 mV for 500 ms (Figure 2). […] The I-V relationships (IV curves) have been determined using an I-V protocol from −100 mV to +100 mV for 500 ms with a difference of 20 mV between each sweep (cf. Figure 6). The IV curves have been normalised to the maximum current. No fit was applied.
After obtaining inside-out membrane patches, the presence of TRPM4 in the patch membrane was confirmed by switching the perfusion solution without calcium at the intracellular side of the membrane to a solution containing 300 μM calcium, which activates TRPM4 and triggers the current. Once the TRPM4 currents were activated and stabilised for intracellular compound application, the perfusion solution containing 300 μM calcium and either the compound or free adenosine triphosphate (ATP) was applied. For extracellular application, the compounds were added to the […] (pipette) solution.
Electrophysiology data were analysed using IGOR PRO 6 (WaveMetrics, Lake Oswego, United States), Normalized current percentage inhibition was calculated as follows ([activated current at 300 μM calcium]—[activated current at 300 μM calcium with compound]) * 100/[activated current at 300 µM calcium]. Concentration-response curves were fitted using the Hill equation fit parameter of IGOR (NC = NCmax [Cmpd]nH/([Cmpd]nH + EC50 nH)) where NC is normalized current [Cmpd] is compound concentration and nH is the Hill coefficient. Data are presented as mean ± SEM except for Figures 3 and 7, where the data have been normalised to 100 for the current recorded in the presence of 300 µM calcium only. Statistically significant differences conditions were determined using a non-parametric test with a Mann-Whitney post-test.

[4] = bath solution, 300 μM calcium, +100 mV

T1 sequence (Q8TD43 whole entry): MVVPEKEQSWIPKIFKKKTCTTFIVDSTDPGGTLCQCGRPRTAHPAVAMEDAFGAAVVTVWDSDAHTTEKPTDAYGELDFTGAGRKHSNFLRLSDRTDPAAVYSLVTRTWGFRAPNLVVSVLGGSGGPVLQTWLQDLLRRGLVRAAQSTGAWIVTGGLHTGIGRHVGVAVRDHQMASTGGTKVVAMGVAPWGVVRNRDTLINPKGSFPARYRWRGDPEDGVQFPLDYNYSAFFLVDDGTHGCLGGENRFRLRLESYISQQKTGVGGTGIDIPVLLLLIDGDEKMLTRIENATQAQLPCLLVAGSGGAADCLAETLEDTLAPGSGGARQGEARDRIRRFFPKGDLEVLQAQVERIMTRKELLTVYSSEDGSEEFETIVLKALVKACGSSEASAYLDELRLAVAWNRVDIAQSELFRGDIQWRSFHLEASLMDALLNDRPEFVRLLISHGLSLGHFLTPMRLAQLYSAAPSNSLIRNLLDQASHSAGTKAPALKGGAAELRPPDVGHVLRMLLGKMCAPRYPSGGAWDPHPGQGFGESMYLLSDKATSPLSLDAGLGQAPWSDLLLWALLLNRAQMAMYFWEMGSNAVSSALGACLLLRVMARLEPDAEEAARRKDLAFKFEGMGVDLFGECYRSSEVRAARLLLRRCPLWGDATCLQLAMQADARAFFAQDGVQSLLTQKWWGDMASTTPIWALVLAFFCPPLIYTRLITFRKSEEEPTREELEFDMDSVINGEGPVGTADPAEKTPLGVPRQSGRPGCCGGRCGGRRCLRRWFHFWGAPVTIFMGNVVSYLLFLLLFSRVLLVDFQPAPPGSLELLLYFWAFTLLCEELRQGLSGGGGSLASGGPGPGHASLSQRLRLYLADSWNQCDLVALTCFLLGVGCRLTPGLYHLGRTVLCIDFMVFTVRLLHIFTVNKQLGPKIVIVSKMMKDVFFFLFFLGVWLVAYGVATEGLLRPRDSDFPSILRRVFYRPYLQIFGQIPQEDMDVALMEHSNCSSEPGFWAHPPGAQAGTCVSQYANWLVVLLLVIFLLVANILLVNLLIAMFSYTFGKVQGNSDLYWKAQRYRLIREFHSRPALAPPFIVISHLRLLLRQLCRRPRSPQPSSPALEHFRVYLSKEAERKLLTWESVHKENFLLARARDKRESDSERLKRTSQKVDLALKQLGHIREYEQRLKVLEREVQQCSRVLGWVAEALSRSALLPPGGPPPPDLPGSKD

Oc1cc2ccccc2c2ccccc12 [9-phenanthrol]
EC50 [1]: ~20000 nM
effect on human TRPM4 sodium current ([2]; 30 μM, extracellular or intracellular application): inhibited human TRPM4 sodium current with a similar efficacy independently of the application side
concentration dependence of potentiation of mouse TRPM4 current ([3]; 0.1 μM versus 100 μM, intracellular application, n = 6): more pronounced with low concentrations
effect on mouse TRPM4 current, intracellular application ([3]; 30 μM in bath solution, 300 μM calcium, +100 mV): increased the current
effect on mouse TRPM4 current, extracellular application ([3]; 30 μM in pipette solution, 300 μM calcium, +100 mV): decreased the mouse TRPM4 current
calcium dependence of the increase of mouse TRPM4 current ([3]; 30 μM, intracellular application, with or without 300 μM calcium): observed only in the presence of 300 μM calcium

Nc1ncnc2c1ncn2[C@@H]1O[C@H](COP(=O)(O)OP(=O)(O)OP(=O)(O)O)[C@@H](O)[C@H]1O [ATP, adenosine triphosphate]
IC50 ([2]; inside-out patch, bath solution, Hill fit, n = 6, read-out: IC50 on human TRPM4 current, intracellular application): 800 nM
IC50 ([3]; inside-out patch, bath solution, 300 μM calcium, +100 mV, Hill fit, n = 6, read-out: IC50 on mouse TRPM4 current, intracellular application): 1400 nM

Cc1cc(Cl)ccc1OC(C)C(=O)Nc1cc(Cl)ccc1C(=O)O (centres unmarked) [CBA-d1]
effect of CBA- and NBA-derived compounds on mouse TRPM4 current [3, 4]: did not decrease the mouse TRPM4 currents

O=C(COc1ccc(Cl)c2ccccc12)Nc1cc(Cl)ccc1C(=O)O [NBA-d1, 4-chloro-2-(2-((4-chloronaphthalen-1-yl)oxy)acetamido) benzoic acid]
effect of CBA- and NBA-derived compounds on mouse TRPM4 current [3, 4]: could inhibit mouse TRPM4 currents

O=C(COc1cccc2c1CCCC2)Nc1cc(Cl)ccc1C(=O)O [NBA-d2, 4-chloro-2-(2-((5,6,7,8-tetrahydronaphthalen-1-yl)oxy)acetamido) benzoic acid]
effect of CBA- and NBA-derived compounds on mouse TRPM4 current [3, 4]: could inhibit mouse TRPM4 currents
